The record followed here is patent US10435399B2, “HDAC6 inhibitory heterocyclic compound” (TAKEDA PHARMACEUTICAL COMPANY LIMITED, priority 2017, dated 2019).

This experiment has as its target T1, HDAC6 enzyme (Homo sapiens, UniProt Q9UBN7).
T1 construct: transducing full length HDAC6 gene into Sf-9 insect cells; GST; purchased SignalChem; host or cells: Sf-9 insect cells
T1 sequence (Q9UBN7 1-1215): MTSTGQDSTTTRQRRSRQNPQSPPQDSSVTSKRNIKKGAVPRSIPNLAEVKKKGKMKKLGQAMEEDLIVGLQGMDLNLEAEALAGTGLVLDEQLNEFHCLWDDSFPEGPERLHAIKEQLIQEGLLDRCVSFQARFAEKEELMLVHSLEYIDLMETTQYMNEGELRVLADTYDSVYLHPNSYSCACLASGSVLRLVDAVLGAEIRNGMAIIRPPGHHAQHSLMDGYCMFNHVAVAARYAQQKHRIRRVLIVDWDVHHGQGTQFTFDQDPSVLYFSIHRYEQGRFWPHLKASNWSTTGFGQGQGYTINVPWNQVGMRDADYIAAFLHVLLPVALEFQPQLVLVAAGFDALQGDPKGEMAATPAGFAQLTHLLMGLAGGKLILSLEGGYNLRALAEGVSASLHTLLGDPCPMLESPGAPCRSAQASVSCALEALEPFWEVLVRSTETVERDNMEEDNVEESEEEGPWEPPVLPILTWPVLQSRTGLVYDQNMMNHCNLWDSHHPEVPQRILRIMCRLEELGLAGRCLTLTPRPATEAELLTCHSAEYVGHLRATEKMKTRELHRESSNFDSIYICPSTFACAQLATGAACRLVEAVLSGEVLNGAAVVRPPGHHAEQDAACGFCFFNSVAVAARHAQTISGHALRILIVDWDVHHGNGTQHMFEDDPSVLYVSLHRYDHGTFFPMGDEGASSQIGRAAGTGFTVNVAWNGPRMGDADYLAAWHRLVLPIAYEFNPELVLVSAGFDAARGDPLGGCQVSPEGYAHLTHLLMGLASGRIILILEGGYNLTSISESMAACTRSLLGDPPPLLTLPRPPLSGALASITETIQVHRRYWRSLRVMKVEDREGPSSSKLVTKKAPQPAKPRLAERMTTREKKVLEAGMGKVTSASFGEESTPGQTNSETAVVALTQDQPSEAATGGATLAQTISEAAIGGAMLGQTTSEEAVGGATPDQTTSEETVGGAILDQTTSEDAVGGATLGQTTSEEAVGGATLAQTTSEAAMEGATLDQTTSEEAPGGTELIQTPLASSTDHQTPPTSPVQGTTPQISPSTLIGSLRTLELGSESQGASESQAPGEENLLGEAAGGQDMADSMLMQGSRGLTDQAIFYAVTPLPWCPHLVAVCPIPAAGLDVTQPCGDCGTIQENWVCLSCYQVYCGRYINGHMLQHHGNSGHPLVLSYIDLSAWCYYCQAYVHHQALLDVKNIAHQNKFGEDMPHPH
In words: HDAC6 enzyme inhibitory activity (HDAC-Glo I/II Assay kit). Conditions: 10 μM; wells without enzyme = 100% inhibition; read-out: HDAC6 inhibitory rate (%) (10 μM). It counts as biochemical. The procedure, abridged: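 Test compound is preincubated 60 min at RT with full-length insect-cell HDAC6 in Tris-HCl pH 7.5 with 135 mM NaCl and 1 mM MgCl2. A 20 min room-temperature HDAC-Glo reaction follows, with luminescent read-out.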
As for `O=C1c2cc(-c3nnc(C(F)F)o3)ccc2CN1C[C@H]1CCCCN1S(=O)(=O)C1CC1` [Example 41, 2-(((2R)-1-(cyclopropylsulfonyl)piperidin-2-yl)methyl)-6-(5-(difluoromethyl)-1,3,4-oxadiazol-2-yl)isoindolin-1-one], the inhibition at 10 µM was found to be 98%. For the compound `O=C1c2cc(-c3nnc(C(F)F)o3)ccc2CN1C[C@H]1CCCCN1C(=O)C1CC1` [Example 42, 2-(((2R)-1-(cyclopropylcarbonyl)piperidin-2-yl)methyl)-6-(5-(difluoromethyl)-1,3,4-oxadiazol-2-yl)isoindolin-1-one], the inhibition at 10 µM amounted to 98%. Take `CC(C)OC(=O)N1CCCC[C@@H]1CN1Cc2ccc(-c3nnc(C(F)F)o3)cc2C1=O` [Example 43, isopropyl (2R)-2-((6-(5-(difluoromethyl)-1,3,4-oxadiazol-2-yl)-1-oxo-1,3-dihydro-2H-isoindol-2-yl)methyl)piperidine-1-carboxylate]: the inhibition at 10 µM was 96%. Regarding `O=C1c2cc(-c3nnc(C(F)F)o3)ccc2CN1C[C@H]1COCCN1S(=O)(=O)C1CC1` [Example 44, 2-(((3S)-4-(cyclopropylsulfonyl)morpholin-3-yl)methyl)-6-(5-(difluoromethyl)-1,3,4-oxadiazol-2-yl)isoindolin-1-one], the inhibition at 10 µM amounted to 100%. For `O=C1c2cc(-c3nnc(C(F)F)o3)ccc2CN1C[C@H]1COCCN1C(=O)C1CC1` [Example 45, 2-(((3S)-4-(cyclopropylcarbonyl)morpholin-3-yl)methyl)-6-(5-(difluoromethyl)-1,3,4-oxadiazol-2-yl)isoindolin-1-one] the value was 99%; for `CC(C)OC(=O)N1CCOC[C@@H]1CN1Cc2ccc(-c3nnc(C(F)F)o3)cc2C1=O` [Example 46, isopropyl (3S)-3-((6-(5-(difluoromethyl)-1,3,4-oxadiazol-2-yl)-1-oxo-1,3-dihydro-2H-isoindol-2-yl)methyl)morpholine-4-carboxylate], 97%.

Turning to `O=C1c2cc(-c3nnc(C(F)F)o3)ccc2CN1C[C@H]1COCCN1C(=O)C1CCCC1` [Example 47], the inhibition at 10 µM was found to be 99%.

For the compound `COC(=O)N1CCOC[C@@H]1CN1Cc2ccc(-c3nnc(C(F)F)o3)cc2C1=O` [Example 48, methyl (3S)-3-((6-(5-(difluoromethyl)-1,3,4-oxadiazol-2-yl)-1-oxo-1,3-dihydro-2H-isoindol-2-yl)methyl)morpholine-4-carboxylate], the inhibition at 10 µM was 98%. For the compound `Cc1ccc(S(=O)(=O)N2CCOC[C@@H]2CN2Cc3ccc(-c4nnc(C(F)F)o4)cc3C2=O)cc1` [Example 49, 6-(5-(difluoromethyl)-1,3,4-oxadiazol-2-yl)-2-(((3S)-4-((4-methylphenyl)sulfonyl)morpholin-3-yl)methyl)isoindolin-1-one], the inhibition at 10 µM is 99%. In the case of `CCCC(=O)N[C@@H]1CCCC[C@H]1N1Cc2ccc(-c3nnc(C(F)F)o3)cc2C1=O` [Example 50, N-((1R,2R)-2-(6-(5-(difluoromethyl)-1,3,4-oxadiazol-2-yl)-1-oxo-1,3-dihydro-2H-isoindol-2-yl)cyclohexyl)butanamide] it was 101%; in that of `CCCCCC(=O)N[C@@H]1CCCC[C@H]1N1Cc2ccc(-c3nnc(C(F)F)o3)cc2C1=O` [Example 51, N-((1R,2R)-2-(6-(5-(difluoromethyl)-1,3,4-oxadiazol-2-yl)-1-oxo-1,3-dihydro-2H-isoindol-2-yl)cyclohexyl)hexanamide], 99%. For `CCOC(=O)N[C@@H]1CCCC[C@H]1N1Cc2ccc(-c3nnc(C(F)F)o3)cc2C1=O` [Example 52, ethyl ((1R,2R)-2-(6-(5-(difluoromethyl)-1,3,4-oxadiazol-2-yl)-1-oxo-1,3-dihydro-2H-isoindol-2-yl)cyclohexyl)carbamate] the value was 96%; for `O=C1c2cc(-c3nnc(C(F)F)o3)ccc2CN1[C@@H]1CCCC[C@H]1N1CCC2(CC2)C1=O` [Example 53, 6-(5-(difluoromethyl)-1,3,4-oxadiazol-2-yl)-2-((1R,2R)-2-(4-oxo-5-azaspiro[2.4]hept-5-yl)cyclohexyl)isoindolin-1-one], 98%. On to `CCc1cc(CC)n([C@@H]2CCCC[C@H]2N2Cc3ccc(-c4nnc(C(F)F)o4)cc3C2=O)n1` [Example 54, 2-((1R,2R)-2-(3,5-diethyl-1H-pyrazol-1-yl)cyclohexyl)-6-(5-(difluoromethyl)-1,3,4-oxadiazol-2-yl)isoindolin-1-one], for which the inhibition at 10 µM worked out at 98%.

With `O=C1c2cc(-c3nnc(C(F)F)o3)ccc2CN1[C@@H]1CCCC[C@H]1n1cc2ccccc2n1` [Example 55, 6-(5-(difluoromethyl)-1,3,4-oxadiazol-2-yl)-2-((1R,2R)-2-(2H-indazol-2-yl)cyclohexyl)isoindolin-1-one], the inhibition at 10 µM was found to be 101%. For `O=C1c2cc(-c3nnc(C(F)F)o3)ccc2CN1CC1CC1` [Example 56, 2-(cyclopropylmethyl)-6-(5-(difluoromethyl)-1,3,4-oxadiazol-2-yl)isoindolin-1-one], the inhibition at 10 µM worked out at 92%.

In the case of `O=C1c2cc(-c3nnc(C(F)F)o3)ccc2CN1Cc1ccccc1` [Example 58, 2-benzyl-6-(5-(difluoromethyl)-1,3,4-oxadiazol-2-yl)isoindolin-1-one], the inhibition at 10 µM was 98%. As for `O=C1c2cc(-c3nnc(C(F)F)o3)ccc2CN1Cc1ccc(C(F)(F)F)cc1` [Example 59, 6-(5-(difluoromethyl)-1,3,4-oxadiazol-2-yl)-2-(4-(trifluoromethyl)benzyl)isoindolin-1-one], the inhibition at 10 µM worked out at 94%. On to `O=C1c2cc(-c3nnc(C(F)F)o3)ccc2CN1Cc1ccccn1` [Example 60, 6-(5-(difluoromethyl)-1,3,4-oxadiazol-2-yl)-2-(pyridin-2-ylmethyl)isoindolin-1-one], for which the inhibition at 10 µM worked out at 96%.

Turning to `Cc1cc(C)n([C@@H]2CCCC[C@H]2N2Cc3ccc(-c4nnc(C(F)F)o4)cc3C2=O)n1` [Example 61, 6-(5-(difluoromethyl)-1,3,4-oxadiazol-2-yl)-2-((1R,2R)-2-(3,5-dimethyl-1H-pyrazol-1-yl)cyclohexyl)isoindolin-1-one], the inhibition at 10 µM was determined as 99%. For the compound `CC(C)(C)OC(=O)N[C@@H]1CCCC[C@H]1N1Cc2ncc(-c3nnc(C(F)F)o3)cc2C1=O` [Example 62, tert-butyl ((1R,2R)-2-(3-(5-(difluoromethyl)-1,3,4-oxadiazol-2-yl)-5-oxo-5,7-dihydro-6H-pyrrolo[3,4-b]pyridin-6-yl)cyclohexyl)carbamate], the inhibition at 10 µM stood at 99%. Regarding `O=C(CC1CC1)N[C@@H]1CCCC[C@H]1N1Cc2ccc(-c3nnc(C(F)F)o3)cc2C1=O` [Example 63, 2-cyclopropyl-N-((1R,2R)-2-(6-(5-(difluoromethyl)-1,3,4-oxadiazol-2-yl)-1-oxo-1,3-dihydro-2H-isoindol-2-yl)cyclohexyl)acetamide], the inhibition at 10 µM was 99%.

For `O=C(CCC(F)F)N[C@@H]1CCCC[C@H]1N1Cc2ccc(-c3nnc(C(F)F)o3)cc2C1=O` [Example 64, N-((1R,2R)-2-(6-(5-(difluoromethyl)-1,3,4-oxadiazol-2-yl)-1-oxo-1,3-dihydro-2H-isoindol-2-yl)cyclohexyl)-4,4-difluorobutanamide], the inhibition at 10 µM was 100%. On to `O=C(CCC(F)(F)F)N[C@@H]1CCCC[C@H]1N1Cc2ccc(-c3nnc(C(F)F)o3)cc2C1=O` [Example 65, N-((1R,2R)-2-(6-(5-(difluoromethyl)-1,3,4-oxadiazol-2-yl)-1-oxo-1,3-dihydro-2H-isoindol-2-yl)cyclohexyl)-4,4,4-trifluorobutanamide], for which the inhibition at 10 µM came to 100%. Regarding `CC(F)C(=O)N[C@@H]1CCCC[C@H]1N1Cc2ccc(-c3nnc(C(F)F)o3)cc2C1=O` (stereo partly drawn) [Example 66, N-((1R,2R)-2-(6-(5-(difluoromethyl)-1,3,4-oxadiazol-2-yl)-1-oxo-1,3-dihydro-2H-isoindol-2-yl)cyclohexyl)-2-fluoropropanamide], the inhibition at 10 µM was found to be 101%.
